Experimental data reported in the RepoRT retention time repository (doi:10.1021/acs.jafc.0c00879).

Assay: RP, Waters ACQUITY UPLC HSS T3, 150 × 2.1 mm, 1.8 µm, 40 °C, 0.28 mL/min, estimated dead time 1.2 min; A: water + 0.1% formic acid; B: methanol + 0.1% formic acid; gradient (min/%B) 0/0 1/0 3/10 18/40 21/100 25.5/100
Conditions: stereoisomer not certain

| LC retention time [min] | SMILES |
| --- | --- |
| 20.6 | CC(C=CC1(O)C(C)=CC(=O)CC1(C)C)=CC(=O)O (stereo not drawn) |
| 11.3 | OCC1OC(Oc2cc3c(O)cc(O)cc3[o+]c2-c2cc(O)c(O)c(O)c2)C(O)C(O)C1O (stereo not drawn) |
| 20.4 | COc1cc(-c2oc3cc(O)cc(O)c3c(=O)c2OC2OC(CO)C(O)C(O)C2O)cc(OC)c1O (stereo not drawn) |
| 14.4 | O=C(OC1Cc2c(O)cc(O)cc2OC1c1ccc(O)c(O)c1)c1cc(O)c(O)c(O)c1 (stereo not drawn) |
| 21.2 | O=c1c(O)c(-c2ccc(O)cc2)oc2cc(O)cc(O)c12 |
| 17 | O=c1c(OC2OC(CO)C(O)C(O)C2O)c(-c2cc(O)c(O)c(O)c2)oc2cc(O)cc(O)c12 (stereo not drawn) |
| 17.7 | COc1cc(-c2oc3cc(=[OH+])cc4occc(c2OC2OC(CO)C(O)C(O)C2O)c43)cc(OC)c1O (stereo not drawn) |
| 20.4 | COc1cc(-c2[o+]c3cc(O)cc(O)c3cc2OC2OC(COC(=O)C=Cc3ccc(O)cc3)C(O)C(O)C2O)ccc1O (stereo not drawn) |
| 2.46 | NC(CCC(=O)NC(CS)C(=O)NCC(=O)O)C(=O)O (stereo not drawn) |
| 19.8 | O=c1oc2c(O)c(O)cc3c(=O)oc4c(O)c(O)cc1c4c23 |
| 20.4 | Oc1ccc(C=Cc2cc(O)cc(O)c2)cc1 |
| 19.6 | COc1cc(-c2oc3cc(O)cc(O)c3c(=O)c2OC2OC(CO)C(O)C(O)C2O)cc(O)c1O (stereo not drawn) |
| 13.3 | COc1cc(-c2[o+]c3cc(O)cc(O)c3cc2OC2OC(CO)C(O)C(O)C2O)cc(O)c1O (stereo not drawn) |
| 21.2 | COc1cc(-c2oc3cc(O)cc(O)c3c(=O)c2O)ccc1O |
| 2.07 | CC(C)C(N)C(=O)O (stereo not drawn) |
| 4.05 | NC(Cc1ccc(O)cc1)C(=O)O (stereo not drawn) |
| 14.6 | Cc1cc2nc3c(=O)[nH]c(=O)nc-3n(CC(O)C(O)C(O)CO)c2cc1C (stereo not drawn) |
| 8.34 | Oc1cc(O)c2c(c1)OC1(c3ccc(O)c(O)c3)Oc3cc(O)c4c(c3C2C1O)OC(c1ccc(O)c(O)c1)C(O)C4 (stereo not drawn) |
| 8.26 | NC(Cc1c[nH]c2ccccc12)C(=O)O (stereo not drawn) |
| 20.9 | COc1cc(-c2oc3cc(O)cc(O)c3c(=O)c2O)cc(O)c1O |
| 5.95 | NC(Cc1ccccc1)C(=O)O (stereo not drawn) |
| 20.2 | COc1cc(-c2[o+]c3cc(O)cc(O)c3cc2OC2OC(COC(=O)C=Cc3ccc(O)cc3)C(O)C(O)C2O)cc(O)c1O (stereo not drawn) |
| 20.3 | COc1cc(-c2[o+]c3cc(O)cc(O)c3cc2OC2OC(COC(=O)C=Cc3ccc(O)cc3)C(O)C(O)C2O)cc(OC)c1O (stereo not drawn) |
| 20.3 | COc1cc(-c2oc3cc(O)cc(O)c3c(=O)c2OC2OC(CO)C(O)C(O)C2O)ccc1O (stereo not drawn) |
| 10.9 | COc1cc(C=CC(=O)OC(C(=O)O)C(O)C(=O)O)ccc1O (stereo not drawn) |
| 10.5 | O=S(=O)(O)c1[nH]c2ccccc2c1CCO |
| 7.71 | O=C(C=Cc1ccc(O)c(O)c1)OC(C(=O)O)C(O)C(=O)O (stereo not drawn) |

| LC retention time [min] | SMILES |
| --- | --- |
| 19.6 | COc1cc(-c2[o+]c3cc(O)cc(O)c3cc2OC2OC(COC(C)=O)C(O)C(O)C2O)cc(OC)c1O (stereo not drawn) |
| 4.21 | CC(C)CC(N)C(=O)O (stereo not drawn) |
| 3.94 | O=c1[nH]c(=O)c2[nH]cnc2[nH]1 |
| 18.4 | COc1cc(-c2[o+]c3cc(O)cc(O)c3cc2OC2OC(COC(C)=O)C(O)C(O)C2O)cc(O)c1O (stereo not drawn) |
| 14.2 | CCOC(=O)c1cc(O)c(O)c(O)c1 |
| 15.2 | O=C(OC1Cc2c(O)cc(O)cc2OC1c1cc(O)c(O)c(O)c1)c1cc(O)c(O)c(O)c1 (stereo not drawn) |
| 1.49 | O=C(O)C1CCCN1 (stereo not drawn) |
| 16.9 | CC(=O)OCC1OC(Oc2cc3c(O)cc(O)cc3[o+]c2-c2cc(O)c(O)c(O)c2)C(O)C(O)C1O (stereo not drawn) |
| 15.3 | O=C(O)C(O)Cc1c[nH]c2ccccc12 (stereo not drawn) |
| 20.2 | O=c1cc2oc(-c3ccc(O)c(O)c3)c(OC3OC(COC(=[OH+])C=Cc4ccc(O)cc4)C(O)C(O)C3O)cc-2c(O)c1 (stereo not drawn) |
| 19 | O=C1c2c(O)cc(O)cc2OC(c2ccc(O)c(OC3OC(C(=O)O)C(O)C(O)C3O)c2)C1O (stereo not drawn) |
| 20.7 | CCOC(=O)C=Cc1ccc(O)c(O)c1 |
| 20.2 | O=c1c(OC2OC(CO)C(O)C(O)C2O)c(-c2ccc(O)cc2)oc2cc(O)cc(O)c12 (stereo not drawn) |
| 20.8 | O=c1c(O)c(-c2ccc(O)c(O)c2)oc2cc(O)cc(O)c12 |
| 20 | O=C(C=Cc1ccc(O)cc1)OCC1OC(Oc2cc3c(O)cc(O)cc3[o+]c2-c2cc(O)c(O)c(O)c2)C(O)C(O)C1O (stereo not drawn) |
| 21.3 | COc1cc(-c2oc3cc(O)cc(O)c3c(=O)c2O)cc(OC)c1O |
| 19.5 | COc1cc(-c2[o+]c3cc(O)cc(O)c3cc2OC2OC(COC(C)=O)C(O)C(O)C2O)ccc1O (stereo not drawn) |
| 14.8 | COc1cc(-c2[o+]c3cc(O)cc(O)c3cc2OC2OC(CO)C(O)C(O)C2O)cc(OC)c1O (stereo not drawn) |
| 18.6 | COc1cc(-c2oc3cc(=O)cc4oc(O)c(C=[OH+])c(c2OC2OC(CO)C(O)C(O)C2O)c43)cc(OC)c1O (stereo not drawn) |
| 14.6 | COc1cc(-c2[o+]c3cc(O)cc(O)c3cc2OC2OC(CO)C(O)C(O)C2O)ccc1O (stereo not drawn) |
| 18.1 | CC(=O)OCC1OC(Oc2cc3c(O)cc(O)cc3[o+]c2-c2ccc(O)c(O)c2)C(O)C(O)C1O (stereo not drawn) |
| 16.6 | O=C(O)C1OC(Oc2c(-c3cc(O)c(O)c(O)c3)oc3cc(O)cc(O)c3c2=O)C(O)C(O)C1O (stereo not drawn) |
| 6.83 | O=C(O)c1cc(O)c(O)c(O)c1 |
| 18.6 | O=C1c2c(O)cc(O)cc2OC(c2ccc(O)cc2)C1O (stereo not drawn) |
| 7.04 | CC(C)(CO)C(O)C(=O)NCCC(=O)O (stereo not drawn) |
| 20.2 | O=C(O)C1OC(Oc2c(-c3ccc(O)cc3)oc3cc(O)cc(O)c3c2=O)C(O)C(O)C1O (stereo not drawn) |
